Results reported in ChEMBL document CHEMBL1772949, “Replacement of the hydrophobic part of 9-cis-retinoic acid with cyclic terpenoid moiety results in RXR-selective agonistic activity” (Bioorg Med Chem, 2011).

Legend:
[1] = target: T1, Cellular retinoic acid-binding protein 2 (Rattus norvegicus) (UniProt P51673); assay: Agonist activity at rat CRABP2 expressed in human MG63 cells co-transfected with RXRE-SV40-Luc assessed as transcriptional efficacy at 10^-6 M after 2 days by luciferase reporter gene assay realtive to 9-cis-retinoic acid; assay type: functional, cell-based; details: MG-63
T1 sequence (whole entry): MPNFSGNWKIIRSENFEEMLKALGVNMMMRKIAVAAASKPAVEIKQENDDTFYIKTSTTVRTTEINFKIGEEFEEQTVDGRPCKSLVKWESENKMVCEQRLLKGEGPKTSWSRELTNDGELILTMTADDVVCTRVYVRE

[2] = target: T2, Retinoic acid receptor beta (Homo sapiens) (UniProt P10826); assay: Agonist activity at human RARbeta expressed in human MG63 cells co-transfected with RARE3-SV40-Luc assessed as transcriptional efficacy at 10^-6 M after 2 days by luciferase reporter gene assay realtive to 9-cis-retinoic acid; assay type: functional, cell-based; details: MG-63
T2 sequence (whole entry): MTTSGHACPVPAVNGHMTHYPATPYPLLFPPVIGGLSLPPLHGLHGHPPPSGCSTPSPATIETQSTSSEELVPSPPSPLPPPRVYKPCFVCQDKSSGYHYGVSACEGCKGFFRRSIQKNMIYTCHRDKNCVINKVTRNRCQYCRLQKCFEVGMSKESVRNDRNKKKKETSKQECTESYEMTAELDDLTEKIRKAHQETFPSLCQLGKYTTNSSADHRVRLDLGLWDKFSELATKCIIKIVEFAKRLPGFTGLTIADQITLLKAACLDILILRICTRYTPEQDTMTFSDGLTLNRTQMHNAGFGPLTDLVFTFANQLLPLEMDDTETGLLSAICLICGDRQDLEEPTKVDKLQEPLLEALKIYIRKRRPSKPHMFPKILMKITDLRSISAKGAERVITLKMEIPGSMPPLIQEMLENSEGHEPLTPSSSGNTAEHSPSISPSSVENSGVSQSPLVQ

Row | SMILES | Ratio [1] | Ratio [2]
1 | C=C(C)[C@H]1CC[C@H](C)C=C1/C=C/C(C)=C\C=C\C(C)=C\C(=O)O | 1.76 | 1.33
2 | CC(=C/C=C/C(C)=C/C(=O)O)/C=C/C1=C[C@@H](C)CC[C@@H]1C(C)C | 1.37 | 0.38
3 | CC(=C/C=C/C(C)=C/C(=O)O)/C=C/C1=C[C@H](C)CC[C@H]1C(C)C | 1.12 | 0.25
4 | CC(=C/C=C/C(C)=C/C(=O)O)/C=C/C1=CC2CC[C@]1(C)C2(C)C (single isomer, unassigned) | 0.66 | 1.99
5 | CC(=C/C=C/C(C)=C/C(=O)O)/C=C/C1=C[C@@H]2CC[C@@]1(C)C2(C)C | 2.34 | 1.36
6 | C/C(=C/C=C/C(C)=C/C(=O)O)C1=C[C@H]2CC[C@]1(C)C2(C)C | 0.18 | 0.04
7 | C/C(=C/C=C/C(C)=C/C(=O)O)C1=C[C@H](C)CC[C@H]1C(C)C | 0.37 | 0.14
8 | CC(C)=C1CC[C@H](C)C=C1/C=C/C(C)=C\C=C\C(C)=C\C(=O)O | 2.06 | 0.32

Second part, the compound after the results:

Row | Ratio [1] | Ratio [2] | SMILES
9 | 0.23 | 0.1 | C=C(C)[C@@H]1CCC2=CC(\C(C)=C/C=C/C(C)=C/C(=O)O)=CC[C@]2(C)[C@H]1C
10 | 0.52 | 1.48 | CC(=C/C=C/C(C)=C/C(=O)O)/C=C/C1=C[C@H]2C[C@@H]([C@@H]1C)C2(C)C
11 | 1.5 | 0.5 | CC(C)=C1CC[C@@H](C)C=C1/C=C/C(C)=C\C=C\C(C)=C\C(=O)O
12 | 2.42 | 1.92 | CC(=C/C=C/C(C)=C/C(=O)O)/C=C/C1=CC[C@H]2C[C@@H]1C2(C)C
13 | 1.07 | 0.35 | C=C(C)[C@@H]1CC[C@@H](C)C=C1/C=C/C(C)=C\C=C\C(C)=C\C(=O)O
14 | 1.3 | 0.89 | CC(=C/C=C/C(C)=C/C(=O)O)/C=C/C1=C[C@@H]2C[C@H]([C@H]1C)C2(C)C
15 | 0.71 | 0.98 | C/C(=C/C=C/C(C)=C/C(=O)O)C1=CC(C)(C)[C@@]23CC[C@@H](C2)C(C)(C)C3=C1
16 | 2.52 | 1.03 | CC(=C/C=C/C(C)=C/C(=O)O)/C=C/C1=C[C@]2(C(C)C)C[C@@H]2[C@H]1C
